Our source for the EC50 and inhibition values is patent US6573262B2, “Composition and antiviral activity of substituted indoleoxoacetic piperazine derivatives” (priority 2000, dated 2003).

The first assay concerns HIV-1 single-round infectious reporter virus. Briefly: microbe, parasite or virus in culture. Format: cell-based. The following applies: Human immunodeficiency virus 1, HeLa-CD4/CCR5, 72 h, read-out: EC50 Group from Table 1.
One may read the EC50 as the concentration at which the effect is half-maximal. Consider `NC(=O)Cn1nnc(-c2ccc(F)c3c(C(=O)C(=O)N4CCN(C(=O)c5ccccc5)CC4)c[nH]c23)n1` [Example 104], for which the EC50 is less than 1 µM.

As for `CC(=O)OCn1nnc(-c2ccc(F)c3c(C(=O)C(=O)N4CCN(C(=O)c5ccccc5)CC4)c[nH]c23)n1` [Example 108], the concentration giving a half-maximal response (EC50) was less than 1 µM.

For the molecule `O=C(C(=O)N1CCN(C(=O)c2ccccc2)CC1)c1c[nH]c2c(-c3nc[nH]n3)ccc(F)c12` [Example 111], the EC50 was less than 1 µM.

As to `O=C(C(=O)N1CCN(C(=O)c2ccccc2)CC1)c1c[nH]c2c(-c3nnn(CCO)n3)ccc(F)c12` [Example 112], the EC50 is less than 1 µM.

As to `O=C(C(=O)N1CCN(C(=O)c2ccccc2)CC1)c1c[nH]c2c(-c3nnn(CCN4C(=O)c5ccccc5C4=O)n3)ccc(F)c12` [Example 113], the EC50 is less than 1 µM.

Take `CCN(CC)CCn1nnc(-c2ccc(F)c3c(C(=O)C(=O)N4CCN(C(=O)c5ccccc5)CC4)c[nH]c23)n1` [Example 114]: the EC50 was less than 1 µM.

As to `N#CCCCn1nnc(-c2ccc(F)c3c(C(=O)C(=O)N4CCN(C(=O)c5ccccc5)CC4)c[nH]c23)n1` [Example 115], the EC50 is less than 1 µM.

`O=C(C(=O)N1CCN(C(=O)c2ccccc2)CC1)c1c[nH]c2c(-n3cccn3)ccc(F)c12` [Example 116]: the EC50 is less than 1 µM.

Turning to `O=C(C(=O)N1CCN(C(=O)c2ccccc2)CC1)c1c[nH]c2c(-n3ccnc3)ccc(F)c12` [Example 117], the EC50 was less than 1 µM.

`O=C(C(=O)N1CCN(C(=O)c2ccccc2)CC1)c1c[nH]c2c(-n3cncn3)ccc(F)c12` [Example 118]: the concentration for a half-maximal effect (EC50) is less than 1 µM.

Regarding `COc1ccc(C(C)=O)c2[nH]cc(C(=O)C(=O)N3CCN(C(=O)c4ccccc4)CC3)c12` [Example 119], the concentration giving a half-maximal response (EC50) is less than 1 µM.

Turning to `CCN(CC)C(=O)COC(=O)c1cc(-c2ccc(F)c3c(C(=O)C(=O)N4CCN(C(=O)c5ccccc5)CC4)c[nH]c23)n[nH]1` [Example 120], the EC50 was less than 1 µM.

Regarding `CC(C)(C)OC(=O)N1CCN(C(=O)C(=O)c2c[nH]c3c(/C(N)=N/O)ccc(F)c23)CC1` [Example 121], the EC50 is less than 1 µM.

Turning to `CC(C)(C)OC(=O)N1CCN(C(=O)C(=O)c2c[nH]c3c(-c4ncon4)ccc(F)c23)CC1` [Example 122], the EC50 was less than 1 µM.

As for `CC1CN(C(=O)C(=O)c2c[nH]c3c(-c4ncon4)ccc(F)c23)CCN1C(=O)c1ccccc1` (centres unmarked) [Example 123], the EC50 was less than 1 µM.

As for `COc1ccc(/C=N/O)c2[nH]cc(C(=O)C(=O)N3CCN(C(=O)c4ccccc4)CC3)c12` [Example 124], the EC50 was less than 1 µM.

`CNC(=O)c1ccc(OC)c2c(C(=O)C(=O)N3CCN(C(=O)c4ccccc4)CC3)c[nH]c12` [Example 125]: the EC50 is less than 1 µM.

In the case of `COc1ccc(-c2ncon2)c2[nH]cc(C(=O)C(=O)N3CCN(C(=O)c4ccccc4)CC3)c12` [Example 126], the EC50 is less than 1 µM.

Take `CC(C)(C)OC(=O)N1C=NNC(c2ccc(F)c3c(C(=O)C(=O)N4CCN(C(=O)c5ccccc5)CC4)c[nH]c23)=N1` [Example 132]: the EC50 is less than 1 µM.

As for `CC(C)(C)NC(=O)NNC(=O)c1ccc(F)c2c(C(=O)C(=O)N3CCN(C(=O)c4ccccc4)CC3)c[nH]c12` [Example 133], the EC50 is less than 1 µM.

For the molecule `CC(C)NC(=O)NNC(=O)c1ccc(F)c2c(C(=O)C(=O)N3CCN(C(=O)c4ccccc4)CC3)c[nH]c12` [Example 134], the EC50 was less than 1 µM.

As for `CCCNC(=O)NNC(=O)c1ccc(F)c2c(C(=O)C(=O)N3CCN(C(=O)c4ccccc4)CC3)c[nH]c12` [Example 135], the EC50 was less than 1 µM.

Regarding `COC(=O)CNc1nc(-c2ccc(F)c3c(C(=O)C(=O)N4CCN(C(=O)c5ccccc5)CC4)c[nH]c23)no1` [Example 140], the EC50 was less than 1 µM.

Consider `COC(=O)Cn1cnc(-c2ccc(F)c3c(C(=O)C(=O)N4CCN(C(=O)c5ccccc5)CC4)c[nH]c23)n1` [Example 144], for which the EC50 was less than 1 µM.

Turning to `CNC(=O)Cn1cnc(-c2ccc(F)c3c(C(=O)C(=O)N4CCN(C(=O)c5ccccc5)CC4)c[nH]c23)n1` [Example 145], the EC50 was less than 1 µM.

On to `COC(=O)c1c[nH]c(-c2ccc(F)c3c(C(=O)C(=O)N4CCN(C(=O)c5ccccc5)CC4)c[nH]c23)n1` [Example 146], for which the EC50 is less than 1 µM.

As for `CNC(=O)c1c[nH]c(-c2ccc(F)c3c(C(=O)C(=O)N4CCN(C(=O)c5ccccc5)CC4)c[nH]c23)n1` [Example 147], the EC50 was less than 1 µM.

As for `COc1ccc(C(N)=O)c2[nH]cc(C(=O)C(=O)N3CCN(C(=O)c4ccccc4)CC3)c12` [Example 148], the EC50 was less than 1 µM.

Turning to `O=C(C(=O)N1CCN(C(=O)c2ccccn2)CC1)c1c[nH]c2c(-c3nnn(C(F)F)n3)ccc(F)c12` [Example 149], the EC50 was less than 1 µM.

As for `O=C(C(=O)N1CCN(C(=O)c2cccc([N+](=O)[O-])c2)CC1)c1c[nH]c2c(-c3ncon3)ccc(F)c12` [Example 150A], the EC50 is less than 1 µM.

As for `O=C(C(=O)N1CCN(C(=O)c2c(F)cccc2F)CC1)c1c[nH]c2c(-c3ncon3)ccc(F)c12` [Example 150B], the EC50 is less than 1 µM.

Take `O=C(C(=O)N1CCN(C(=O)c2ccccc2F)CC1)c1c[nH]c2c(-c3ncon3)ccc(F)c12` [Example 150C]: the EC50 is less than 1 µM.

As to `Nc1cccc(C(=O)N2CCN(C(=O)C(=O)c3c[nH]c4c(-c5ncon5)ccc(F)c34)CC2)c1` [Example 151], the EC50 is less than 1 µM.

In the case of `COCCNC(=O)c1ccc(F)c2c(C(=O)C(=O)N3CCN(C(=O)c4ccccc4)CC3)c[nH]c12` [Example 152], the EC50 is less than 1 µM.

Consider `CC(C)(C)OC(=O)NCCNC(=O)c1ccc(F)c2c(C(=O)C(=O)N3CCN(C(=O)c4ccccc4)CC3)c[nH]c12` [Example 153], for which the EC50 is less than 1 µM.

In the case of `NCCNC(=O)c1ccc(F)c2c(C(=O)C(=O)N3CCN(C(=O)c4ccccc4)CC3)c[nH]c12` [Example 154], the EC50 was less than 1 µM.

Regarding `C[C@@H]1CN(C(=O)c2ccccc2)CCN1C(=O)C(=O)c1c[nH]c2c(-c3noc(N)n3)ccc(F)c12` [Example 155], the EC50 is less than 1 µM.

Consider `CN(C)c1nc(-c2ccc(F)c3c(C(=O)C(=O)N4CCN(C(=O)c5ccccc5)CC4)c[nH]c23)no1` [Example 156], for which the EC50 is less than 1 µM.

`CNc1nc(-c2ccc(F)c3c(C(=O)C(=O)N4CCN(C(=O)c5ccccc5)CC4)c[nH]c23)no1` [Example 157]: the EC50 is less than 1 µM.

Regarding `CC(C)Nc1nc(-c2ccc(F)c3c(C(=O)C(=O)N4CCN(C(=O)c5ccccc5)CC4)c[nH]c23)no1` [Example 158], the EC50 was less than 1 µM.

For the molecule `C[C@@H]1CN(C(=O)c2ccccc2)CCN1C(=O)C(=O)c1c[nH]c2c(-c3noc(NCCN4CCOCC4)n3)ccc(F)c12` [Example 159], the EC50 was less than 1 µM.

In the case of `CCC(C)Nc1nc(-c2ccc(F)c3c(C(=O)C(=O)N4CCN(C(=O)c5ccccc5)C[C@H]4C)c[nH]c23)no1` (some centres unmarked) [Example 160], the EC50 is less than 1 µM.

For the molecule `C[C@@H]1CN(C(=O)c2ccccc2)CCN1C(=O)C(=O)c1c[nH]c2c(-c3noc(NC4CCC4)n3)ccc(F)c12` [Example 161], the EC50 was less than 1 µM.

Take `C[C@@H]1CN(C(=O)c2ccccc2)CCN1C(=O)C(=O)c1c[nH]c2c(-c3noc(NC4CCCC4)n3)ccc(F)c12` [Example 162]: the EC50 is less than 1 µM.

Regarding `O=C(C(=O)N1CCN(C(=O)c2ccccc2)CC1)c1c[nH]c2c(C3=NCCN3)ccc(F)c12` [Example 163], the EC50 was less than 1 µM.

Regarding `O=C(C(=O)N1CCN(C(=O)c2ccccc2)CC1)c1c[nH]c2c(-c3nc4cnccc4[nH]3)ccc(F)c12` [Example 164], the EC50 is less than 1 µM.

Take `O=C(C(=O)N1CCN(C(=O)c2ccccc2)CC1)c1c[nH]c2c(-c3nc4ncccc4[nH]3)ccc(F)c12` [Example 165]: the EC50 is less than 1 µM.

With `N=C(Nc1cccnc1N)c1ccc(F)c2c(C(=O)C(=O)N3CCN(C(=O)c4ccccc4)CC3)c[nH]c12` [Example 166], the EC50 is less than 1 µM.

As to `C[C@@H]1CN(C(=O)c2ccccc2)CCN1C(=O)C(=O)c1c[nH]c2c(-c3noc(=O)[nH]3)ccc(F)c12` [Example 176], the 50% effective concentration (EC50) was less than 1 µM.

As for `C[C@@H]1CN(C(=O)c2ccccc2)CCN1C(=O)C(=O)c1c[nH]c2c(C(=O)NCCN3CCOCC3)ccc(F)c12` [Example 177], the EC50 was less than 1 µM.

Take `Cc1nc(-c2ccc(F)c3c(C(=O)C(=O)N4CCN(C(=O)c5ccccc5)C[C@H]4C)c[nH]c23)no1` [Example 178]: the EC50 was less than 1 µM.

Consider `C[C@@H]1CN(C(=O)c2ccccc2)CCN1C(=O)C(=O)c1c[nH]c2c(-c3noc(C4CC4)n3)ccc(F)c12` [Example 179], for which the EC50 is less than 1 µM.

For `C[C@@H]1CN(C(=O)c2ccccc2)CCN1C(=O)C(=O)c1c[nH]c2c(-c3noc(C(F)(F)F)n3)ccc(F)c12` [Example 180], the EC50 was less than 1 µM.

Consider `C[C@@H]1CN(C(=O)c2ccccc2)CCN1C(=O)C(=O)c1c[nH]c2c(-c3ncon3)ccc(F)c12` [Example 181], for which the EC50 is less than 1 µM.

Consider `COC(=O)c1nc(-c2ccc(F)c3c(C(=O)C(=O)N4CCN(C(=O)c5ccccc5)C[C@H]4C)c[nH]c23)no1` [Example 182], for which the EC50 was less than 1 µM.

In the case of `N/C(=N\O)c1ccc(F)c2c(C(=O)C(=O)N3CCN(C(=O)c4ccccn4)CC3)c[nH]c12` [Example 183], the EC50 was less than 1 µM.

Turning to `NC(=O)c1ccc(F)c2c(C(=O)C(=O)N3CCN(C(=O)c4ccccn4)CC3)c[nH]c12` [Example 184], the EC50 is less than 1 µM.

As for `C[C@@H]1CN(C(=O)c2ccccn2)CCN1C(=O)C(=O)c1c[nH]c2c(-c3noc(C(Cl)(Cl)Cl)n3)ccc(F)c12` [Example 187], the EC50 was less than 1 µM.

On to `O=C(C(=O)N1CCN(C(=O)c2ccccn2)CC1)c1c[nH]c2c(-c3noc(C(Cl)(Cl)Cl)n3)ccc(F)c12` [Example 188], for which the EC50 is less than 1 µM.

Turning to `Nc1nc(-c2ccc(F)c3c(C(=O)C(=O)N4CCN(C(=O)c5ccccn5)CC4)c[nH]c23)no1` [Example 189], the EC50 is less than 1 µM.

Regarding `C[C@@H]1CN(C(=O)c2ccccn2)CCN1C(=O)C(=O)c1c[nH]c2c(-c3noc(N)n3)ccc(F)c12` [Example 190], the EC50 is less than 1 µM.

The same assay, now with this note: Human immunodeficiency virus 1, HeLa-CD4/CCR5, read-out: % Inhibition @ 10 uM.
The term inhibition denotes the percentage by which the read-out fell short of the control. In the case of `C[C@@H]1CN(C(=O)c2ccccc2)CCN1C(=O)C(=O)c1c[nH]c2c(-c3nnn(C)n3)ccc(F)c12` [Example 175], the inhibition at 10 µM was greater than 98%.
